Measurements reported in the supplement of paper PMC10307832.

Legend:
Assay in all cases: relative viability (nuclei count vs DMSO), 5 days (fraction); higher = more cells survive
[1] = system: EPLC-272H
Outline: (§1)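 Each reported value is a median over duplicate plates. It expresses relative viability: treated-well nuclei count divided by vehicle-well nuclei count. Lung cancer cell lines in 1536-well plates were dosed by pin tool a day after seeding, alone with one drug or with a fixed anchor-drug dose plus five library-drug doses (not always all listed) in √10 steps, and nuclei were counted after 5 days.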

[2] = system: NCI-H1915
Outline: as §1

[3] = system: A-427
Outline: as §1

[4] = system: SK-MES-1
Outline: as §1

[5] = system: HOP-62
Outline: as §1

[6] = system: NCI-H2087
Outline: as §1

[7] = system: NCI-H661
Outline: as §1

[8] = system: LOU-NH91
Outline: as §1

[9] = system: HCC-366
Outline: as §1

[10] = system: EKVX
Outline: as §1

[11] = system: HCC-78
Outline: as §1

[12] = system: NCI-H2023
Outline: as §1

[13] = system: NCI-H1650
Outline: as §1

[14] = system: COR-L23
Outline: as §1

[15] = system: NCI-H596
Outline: as §1

[16] = system: NCI-H650
Outline: as §1

[17] = system: NCI-H838
Outline: as §1

[18] = system: HCC-44
Outline: as §1

[19] = system: NCI-H358
Outline: as §1

[20] = system: ChaGo-K-1
Outline: as §1

[21] = system: NCI-H1734
Outline: as §1

[22] = system: NCI-H1395
Outline: as §1

[23] = system: NCI-H3122
Outline: as §1

O=C(O)CCCCC(CCSCc1ccccc1)SCc1ccccc1 (centres undefined) [CPI-613] + COc1cccc2cc(-c3nc([C@H]4CC[C@H](C(=O)O)CC4)n4ncnc(N)c34)[nH]c12 [OSI-027] (partner 0.5 µM)
relative viability ([1]; first compound 5 µM): 0.279 | relative viability ([1]; first compound 15.81 µM): 0.307 | relative viability ([1]; first compound 50 µM): 0.263 | relative viability ([1]; first compound 158.11 µM): 0.261 | relative viability ([1]; first compound 500 µM): 0.0195 | relative viability ([2]; first compound 5 µM): 0.557 | relative viability ([2]; first compound 15.81 µM): 0.538 | relative viability ([2]; first compound 50 µM): 0.485 | relative viability ([2]; first compound 158.11 µM): 0.447 | relative viability ([2]; first compound 500 µM): 0.001 | relative viability ([3]; first compound 5 µM): 0.416 | relative viability ([3]; first compound 15.81 µM): 0.423 | relative viability ([3]; first compound 50 µM): 0.387 | relative viability ([3]; first compound 158.11 µM): 0.348 | relative viability ([3]; first compound 500 µM): 0.154 | relative viability ([4]; first compound 5 µM): 0.592 | relative viability ([4]; first compound 15.81 µM): 0.526 | relative viability ([4]; first compound 50 µM): 0.465 | relative viability ([4]; first compound 158.11 µM): 0.12 | relative viability ([4]; first compound 500 µM): 0.0545 | relative viability ([5]; first compound 5 µM): 0.74 | relative viability ([5]; first compound 15.81 µM): 0.759 | relative viability ([5]; first compound 50 µM): 0.799 | relative viability ([5]; first compound 158.11 µM): 0.477 | relative viability ([5]; first compound 500 µM): 0.301 | relative viability ([6]; first compound 5 µM): 0.501 | relative viability ([6]; first compound 15.81 µM): 0.462 | relative viability ([6]; first compound 50 µM): 0.471 | relative viability ([6]; first compound 158.11 µM): 0.195 | relative viability ([6]; first compound 500 µM): 0.0169 | relative viability ([7]; first compound 5 µM): 0.684 | relative viability ([7]; first compound 15.81 µM): 0.601 | relative viability ([7]; first compound 50 µM): 0.597 | relative viability ([7]; first compound 158.11 µM): 0.413 | relative viability ([7]; first compound 500 µM): 0.126 | relative viability ([8]; first compound 5 µM): 0.703 | relative viability ([8]; first compound 15.81 µM): 0.65 | relative viability ([8]; first compound 50 µM): 0.703 | relative viability ([8]; first compound 158.11 µM): 0.686 | relative viability ([8]; first compound 500 µM): 0.672 | relative viability ([9]; first compound 5 µM): 0.924 | relative viability ([9]; first compound 15.81 µM): 0.787 | relative viability ([9]; first compound 50 µM): 1.08 | relative viability ([9]; first compound 158.11 µM): 0.244 | relative viability ([9]; first compound 500 µM): 0.0116 | relative viability ([10]; first compound 5 µM): 0.631 | relative viability ([10]; first compound 15.81 µM): 0.624 | relative viability ([10]; first compound 50 µM): 0.718 | relative viability ([10]; first compound 158.11 µM): 0.673 | relative viability ([10]; first compound 500 µM): 0.693 | relative viability ([11]; first compound 5 µM): 0.351 | relative viability ([11]; first compound 15.81 µM): 0.377 | relative viability ([11]; first compound 50 µM): 0.373 | relative viability ([11]; first compound 158.11 µM): 0.351 | relative viability ([11]; first compound 500 µM): 0.4 | relative viability ([12]; first compound 5 µM): 0.407 | relative viability ([12]; first compound 15.81 µM): 0.303 | relative viability ([12]; first compound 50 µM): 0.29 | relative viability ([12]; first compound 158.11 µM): 0.0518 | relative viability ([12]; first compound 500 µM): 0.0054 | relative viability ([13]; first compound 5 µM): 0.592 | relative viability ([13]; first compound 15.81 µM): 0.566 | relative viability ([13]; first compound 50 µM): 0.58 | relative viability ([13]; first compound 158.11 µM): 0.14 | relative viability ([13]; first compound 500 µM): 0.0159 | relative viability ([14]; first compound 5 µM): 0.738 | relative viability ([14]; first compound 15.81 µM): 0.584 | relative viability ([14]; first compound 50 µM): 0.562 | relative viability ([14]; first compound 158.11 µM): 0.169 | relative viability ([14]; first compound 500 µM): 0.0278 | relative viability ([15]; first compound 5 µM): 0.673 | relative viability ([15]; first compound 15.81 µM): 0.623 | relative viability ([15]; first compound 50 µM): 0.832 | relative viability ([15]; first compound 158.11 µM): 0.489 | relative viability ([15]; first compound 500 µM): 0.0755 | relative viability ([16]; first compound 5 µM): 0.445 | relative viability ([16]; first compound 15.81 µM): 0.415 | relative viability ([16]; first compound 50 µM): 0.466 | relative viability ([16]; first compound 158.11 µM): 0.346 | relative viability ([16]; first compound 500 µM): 0.373 | relative viability ([17]; first compound 5 µM): 0.354 | relative viability ([17]; first compound 15.81 µM): 0.335 | relative viability ([17]; first compound 50 µM): 0.301 | relative viability ([17]; first compound 158.11 µM): 0.235 | relative viability ([17]; first compound 500 µM): 0.0809 | relative viability ([18]; first compound 5 µM): 0.432 | relative viability ([18]; first compound 15.81 µM): 0.405 | relative viability ([18]; first compound 50 µM): 0.501 | relative viability ([18]; first compound 158.11 µM): 0.489 | relative viability ([18]; first compound 500 µM): 0.0788 | relative viability ([19]; first compound 15.81 µM): 0.655 | relative viability ([19]; first compound 50 µM): 0.639 | relative viability ([19]; first compound 158.11 µM): 0.303 | relative viability ([19]; first compound 500 µM): 0.0233 | relative viability ([20]; first compound 5 µM): 0.61 | relative viability ([20]; first compound 15.81 µM): 0.509 | relative viability ([20]; first compound 50 µM): 0.53 | relative viability ([20]; first compound 158.11 µM): 0.377 | relative viability ([20]; first compound 500 µM): 0.0966 | relative viability ([21]; first compound 5 µM): 0.58 | relative viability ([21]; first compound 15.81 µM): 0.55 | relative viability ([21]; first compound 50 µM): 0.571 | relative viability ([21]; first compound 158.11 µM): 0.325 | relative viability ([21]; first compound 500 µM): 0.1 | relative viability ([22]; first compound 5 µM): 0.67 | relative viability ([22]; first compound 15.81 µM): 0.602 | relative viability ([22]; first compound 50 µM): 0.668 | relative viability ([22]; first compound 158.11 µM): 0.694 | relative viability ([22]; first compound 500 µM): 0.568 | relative viability ([23]; first compound 5 µM): 0.9 | relative viability ([23]; first compound 15.81 µM): 0.876 | relative viability ([23]; first compound 50 µM): 0.7 | relative viability ([23]; first compound 158.11 µM): 0.39 | relative viability ([23]; first compound 500 µM): 0.045
